In patent US9790218B2, “Small molecule activators of calcium-activated chloride channels and methods of use” (The Regents of the University of California, priority 2011, dated 2017):

Target: T1, TMEM16A (Homo sapiens, UniProt Q5XXA6, DEL476-501)
T1 construct: expressed in transfected cells
T1 sequence (Q5XXA6 with tags, fused parts or gaps isoform Q5XXA6-5 DEL539-564): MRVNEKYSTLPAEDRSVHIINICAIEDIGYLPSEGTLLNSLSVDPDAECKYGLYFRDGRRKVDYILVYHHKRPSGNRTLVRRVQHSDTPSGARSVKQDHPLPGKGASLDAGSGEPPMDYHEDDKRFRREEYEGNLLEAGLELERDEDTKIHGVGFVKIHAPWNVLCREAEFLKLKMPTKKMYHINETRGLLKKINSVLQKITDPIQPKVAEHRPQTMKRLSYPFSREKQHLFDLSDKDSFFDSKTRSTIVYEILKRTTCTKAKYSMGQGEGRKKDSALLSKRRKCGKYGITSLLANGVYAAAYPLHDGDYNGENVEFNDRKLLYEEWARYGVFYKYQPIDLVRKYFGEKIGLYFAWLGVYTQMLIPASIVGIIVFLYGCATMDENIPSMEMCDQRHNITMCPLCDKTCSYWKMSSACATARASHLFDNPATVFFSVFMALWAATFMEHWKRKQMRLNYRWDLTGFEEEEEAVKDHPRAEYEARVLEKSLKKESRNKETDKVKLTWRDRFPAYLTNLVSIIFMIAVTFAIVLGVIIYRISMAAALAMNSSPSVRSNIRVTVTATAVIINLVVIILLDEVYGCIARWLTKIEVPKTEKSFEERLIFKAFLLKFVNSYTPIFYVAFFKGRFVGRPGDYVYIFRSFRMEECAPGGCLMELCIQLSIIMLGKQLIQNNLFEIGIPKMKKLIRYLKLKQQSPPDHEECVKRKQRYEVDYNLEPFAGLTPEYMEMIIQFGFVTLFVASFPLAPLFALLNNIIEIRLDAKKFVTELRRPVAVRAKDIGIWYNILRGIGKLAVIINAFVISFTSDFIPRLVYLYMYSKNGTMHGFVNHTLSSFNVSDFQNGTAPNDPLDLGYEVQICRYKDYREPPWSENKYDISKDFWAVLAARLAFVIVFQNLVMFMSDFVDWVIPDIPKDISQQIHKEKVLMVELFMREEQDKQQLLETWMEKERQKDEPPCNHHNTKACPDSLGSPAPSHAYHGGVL
Experiment: Fluorescence plate reader assay of TMEM16A-mediated I^− influx (YFP halide sensor)
Assay type: cell-based
Method: FRT cells were stably transfected with human TMEM16A (TMEM16A(abc), cDNA provided by Dr. Luis Galietta, Gaslini Institute, Genoa, Italy) and the halide sensor YFP-H148Q/1152L/F46L. Cells were plated in 96-well black-walled microplates (Corning Inc., Corning, N.Y.) at a density of 20,000 cells per well in Coon's modified F12 medium supplemented with 5% fetal calf serum, 2 mM L-glutamine, 100 U/mL penicillin and 100 μg/mL streptomycin. The human submandibular cell line A253 (ATCC HTB 41) was cultured in complete McCoy's 5A medium supplemented with 10% fetal bovine serum, 100 U/mL penicillin and 100 μg/mL streptomycin.
TMEM16A activators were identified from screening of ˜110,000 synthetic drug-like compounds, purified natural products and approved/investigational drugs. The cell-based screen employs FRT cells coexpressing human TMEM16A and the I^−-sensing yellow fluorescent protein YFP-H148Q/1152L/F46L. FRT cells were chosen because of their low basal I^− and Cl^− transport, rapid growth on uncoated plastic, strong stable expression of transfected proteins, and formation of tight junctions for measurements of transepithelial short-circuit current (Ma et al., supra).
High-throughput screening was done using an automated screening platform (Beckman) equipped with FluoStar fluorescence plate readers (BMG Lab Technologies, Durham, N.C.) as described (Ma et al., supra). Each well of a 96-well plate was washed 3 times with PBS (200 μL/wash), leaving 50 μL PBS. Test compounds (0.5 μL) were added to each well at […]. After 10 min, 96-well plates were transferred to a plate reader for fluorescence assay. Each well was assayed individually for TMEM16A-mediated I^− influx by recording fluorescence continuously (400 ms per point) for 2 s (baseline), then 50 μL of a 140 mM I^− solution was added. The initial rate of I^− influx was computed from fluorescence data by non-linear regression.
As diagrammed in FIG. 1A, test compounds at 25 μM final concentration were added 10 min prior to I^− addition. The 10 min incubation was chosen to allow for compound transport into cytoplasm and to minimize false positives from compounds that elevate cytoplasmic Ca^2+ transiently. Fluorescence from individual wells of 96-well plates was measured just prior to and for 6 s after I^− addition for computation of initial I^− influx rate.

O=C(Nc1ccc(Br)cc1)c1cccc(-n2cnnn2)c1 [Fact, N-(4-bromophenyl)-3-(1H-tetrazol-1-yl)benzamide]
EC50: 37 µM
TMEM16A conductance, F class SAR (synthesized F class analogs): increased TMEM16A conductance
